Data reported in US12391737B2, “Soluble NPY2 receptor agonists” (Boehringer Ingelheim International GmbH, priority 2020, dated 2025).

Columns and labels:
[1] = biological target: T1, Human Neuropeptide Y2 Receptor (Homo sapiens, UniProt P49146); experiment: Radioligand binding competition assay (RLB); settings: Table 3, 125I-PYY(1-36) competition; read-out: Ki
T1 construct: purchased CHEMICON HTS066M
T1 sequence (P49146 1-381): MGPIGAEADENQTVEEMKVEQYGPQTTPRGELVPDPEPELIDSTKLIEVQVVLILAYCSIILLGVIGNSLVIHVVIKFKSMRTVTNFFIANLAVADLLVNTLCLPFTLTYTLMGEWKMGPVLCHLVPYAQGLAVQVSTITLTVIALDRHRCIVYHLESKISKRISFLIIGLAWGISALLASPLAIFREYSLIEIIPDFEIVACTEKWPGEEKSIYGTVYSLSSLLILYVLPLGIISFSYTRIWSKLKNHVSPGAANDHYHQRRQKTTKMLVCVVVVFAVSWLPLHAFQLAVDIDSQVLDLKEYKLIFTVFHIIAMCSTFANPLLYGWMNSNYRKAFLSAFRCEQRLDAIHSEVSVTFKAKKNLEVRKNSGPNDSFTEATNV
Outline: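 Filtration binding assay on human Y2 receptor membrane preparation, 0.5 μg protein per well, in 50 mM HEPES pH 7.4 containing 5 mM MgCl2, 1 mM CaCl2 and 0.2% ovalbumin. Plates shake 2 h at room temperature before harvest and scintillation counting.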

Solubility determination = settings: for Sol6: pH 6; for Sol7: pH 7
Outline: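 First, TFA-salt peptide was added to 0.1 M sodium diphosphate (pH 6.4 or 7.0) to 10 mg/ml and shaken 2 h at room temperature. Next, insoluble material was filtered off. Finally, filtrate and control, each 1 mg/ml in 50% acetonitrile, were compared by reversed-phase chromatography.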

Ki [1] [nM]	Sol6 (Solubility determination) [mg/mL]	Sol7 (Solubility determination) [mg/mL]	Compound
3.06	8.8	8.7	CC(C)CC(=O)N[C@@H](C)C(=O)N1CCC[C@H]1C(=O)N[C@@H](CCC(=O)O)C(=O)N[C@@H](CCCCNC(=O)CCCCCNC(=O)CC[C@H](NC(=O)CCCCCCCCCCCCCCCCC(=O)O)C(=O)O)C(=O)N1CCC[C@H]1C(=O)N[C@@H](CCC(=O)O)C(=O)N[C@@H](CCC(=O)O)C(=O)N[C@@H](CO)C(=O)N[C@@H](C)C(=O)N[C@H](C(=O)N1CCC[C@H]1C(=O)N[C@@H](CCC(=O)O)C(=O)N[C@@H](CCC(=O)O)C(=O)N[C@@H](CC(C)C)C(=O)N[C@@H](CCC(N)=O)C(=O)N[C@@H](CCCNC(=N)N)C(=O)N[C@@H](Cc1ccc(O)cc1)C(=O)N[C@@H](Cc1ccc(O)cc1)C(=O)N[C@H](C(=O)N[C@@H](CO)C(=O)N[C@@H](CC(C)C)C(=O)N[C@@H](CCCNC(=N)N)C(=O)N[C@@H](Cc1c[nH]cn1)C(=O)N[C@@H](Cc1ccc(O)cc1)C(=O)N[C@@H](Cc1ccc(O)cc1)C(=O)N[C@@H](CC(N)=O)C(=O)N[C@@H](Cc1c[nH]c2ccccc12)C(=O)N[C@@H](CC(C)C)C(=O)N[C@H](C(=O)N[C@@H](CCCNC(=N)N)C(=O)N[C@@H](CCC(N)=O)C(=O)N[C@@H](CCCNC(=N)N)C(=O)N[C@@H](Cc1ccc(O)cc1)C(N)=O)[C@@H](C)O)C(C)C)[C@@H](C)O [Compound 96, N{alpha-4}-(3-methylbutanoyl)-N{epsilon-7}-(6-[(4S)-4-carboxy-4-(17-carboxyheptadecanamido)butanamido]hexanoyl)-[4A,7K,9E,11S,13T,18Q,22V,28Y,30W,31L]-hPYY(4-36)]
2.87	9.0	9.1	CC(C)CC(=O)N[C@@H](C)C(=O)N1CCC[C@H]1C(=O)N[C@@H](C)C(=O)N[C@@H](CCCCNC(=O)CCCCCNC(=O)CC[C@H](NC(=O)CCCCCCCCCCCCCCCCC(=O)O)C(=O)O)C(=O)N1CCC[C@H]1C(=O)N[C@@H](CCC(=O)O)C(=O)N[C@@H](CCC(=O)O)C(=O)N[C@@H](CCC(=O)O)C(=O)N[C@@H](C)C(=O)N[C@@H](CO)C(=O)N1CCC[C@H]1C(=O)N[C@@H](CCC(=O)O)C(=O)N[C@@H](CCC(=O)O)C(=O)N[C@@H](CC(C)C)C(=O)N[C@@H](CCC(N)=O)C(=O)N[C@@H](CCCNC(=N)N)C(=O)N[C@@H](Cc1ccc(O)cc1)C(=O)N[C@@H](Cc1ccc(O)cc1)C(=O)N[C@H](C(=O)N[C@@H](CO)C(=O)N[C@@H](CC(C)C)C(=O)N[C@@H](CCCNC(=N)N)C(=O)N[C@@H](Cc1c[nH]cn1)C(=O)N[C@@H](Cc1ccc(O)cc1)C(=O)N[C@@H](Cc1ccc(O)cc1)C(=O)N[C@@H](CC(N)=O)C(=O)N[C@@H](Cc1c[nH]c2ccccc12)C(=O)N[C@@H](CC(C)C)C(=O)N[C@H](C(=O)N[C@@H](CCCNC(=N)N)C(=O)N[C@@H](CCC(N)=O)C(=O)N[C@@H](CCCNC(=N)N)C(=O)N[C@@H](Cc1ccc(O)cc1)C(N)=O)[C@@H](C)O)C(C)C [Compound 199, N{alpha-4}-(3-methylbutanoyl)-N{epsilon-7}-(6-[(4S)-4-carboxy-4-(17-carboxyheptadecanamido)butanamido]hexanoyl)-[4A,6A,7K,9E,11E,18Q,22V,28Y,30W,31L]-hPYY(4-36)]
2.05	10.0	7.6	CC[C@H](C)[C@H](NC(=O)[C@H](Cc1ccc(O)cc1)NC(=O)[C@H](Cc1ccc(O)cc1)NC(=O)[C@H](CCCNC(=N)N)NC(=O)[C@H](CCC(N)=O)NC(=O)[C@H](CC(C)C)NC(=O)[C@H](CCC(=O)O)NC(=O)[C@H](CCC(=O)O)NC(=O)[C@@H]1CCCN1C(=O)[C@H](CCC(=O)O)NC(=O)[C@H](C)NC(=O)[C@H](CC(=O)O)NC(=O)[C@H](C)NC(=O)[C@H](CCC(=O)O)NC(=O)[C@@H]1CCCN1C(=O)[C@H](CCCCNC(=O)CCCCCNC(=O)CC[C@H](NC(=O)CCCCCCCCCCCCCCCCC(=O)O)C(=O)O)NC(=O)[C@H](CCC(=O)O)NC(=O)[C@@H]1CCCN1C(=O)[C@H](C)NC(=O)CC(C)C)C(=O)N[C@@H](C)C(=O)N[C@@H](CC(C)C)C(=O)N[C@@H](CCCNC(=N)N)C(=O)N[C@@H](Cc1c[nH]cn1)C(=O)N[C@@H](Cc1ccc(O)cc1)C(=O)N[C@@H](Cc1ccc(O)cc1)C(=O)N[C@@H](CC(N)=O)C(=O)N[C@@H](Cc1c[nH]c2ccccc12)C(=O)N[C@@H](CC(C)C)C(=O)N[C@H](C(=O)N[C@@H](CCCNC(=N)N)C(=O)N[C@@H](CCC(N)=O)C(=O)N[C@@H](CCCNC(=N)N)C(=O)N[C@@H](Cc1ccc(O)cc1)C(N)=O)[C@@H](C)O [Compound 1, N{alpha-4}-(3-methylbutanoyl)-N{epsilon-7}-(6-[(4S)-4-carboxy-4-(17-carboxyheptadecanamido)butanamido]hexanoyl)[4A,7K,9E,10A,13E,18Q,22I,23A,28Y,30W,31L]-hPYY(4-36)]
5.82	9.7	9.8	CC(C)CC(=O)N[C@@H](C)C(=O)N1CCC[C@H]1C(=O)N[C@@H](CCC(=O)O)C(=O)N[C@@H](CCCCNC(=O)CCCCCNC(=O)CC[C@H](NC(=O)CCCCCCCCCCCCCCCCC(=O)O)C(=O)O)C(=O)N1CCC[C@H]1C(=O)N[C@@H](CCC(=O)O)C(=O)N[C@@H](CCC(=O)O)C(=O)N[C@@H](CC(=O)O)C(=O)N[C@@H](C)C(=O)N[C@@H](CCC(=O)O)C(=O)N1CCC[C@H]1C(=O)N[C@@H](CCC(=O)O)C(=O)N[C@@H](CCC(=O)O)C(=O)N[C@@H](CC(C)C)C(=O)N[C@@H](CCC(N)=O)C(=O)N[C@@H](C)C(=O)N[C@@H](Cc1ccc(O)cc1)C(=O)N[C@@H](Cc1ccc(O)cc1)C(=O)N[C@H](C(=O)N[C@@H](CO)C(=O)N[C@@H](CC(C)C)C(=O)N[C@@H](CCCNC(=N)N)C(=O)N[C@@H](Cc1c[nH]cn1)C(=O)N[C@@H](Cc1ccc(O)cc1)C(=O)N[C@@H](Cc1ccc(O)cc1)C(=O)N[C@@H](CC(N)=O)C(=O)N[C@@H](Cc1c[nH]c2ccccc12)C(=O)N[C@@H](CC(C)C)C(=O)N[C@H](C(=O)N[C@@H](CCCNC(=N)N)C(=O)N[C@@H](CCC(N)=O)C(=O)N[C@@H](CCCNC(=N)N)C(=O)N[C@@H](Cc1ccc(O)cc1)C(N)=O)[C@@H](C)O)C(C)C [Compound 169, N{alpha-4}-(3-methylbutanoyl)-N{epsilon-7}-(6-[(4S)-4-carboxy-4-(17-carboxyheptadecanamido)butanamido]hexanoyl)-[4A,7K,9E,13E,18Q,19A,22V,28Y,30W,31L]-hPYY(4-36)]
